Tests used:
[1] = Toxicity of various base fluids, overall rank; details: 1 = least toxic
Experimental: (§1) Environmental tests were carried out on the base fluids, several muds, and a few samples of mud-coated cuttings before and after treatment in a bioreactor. The tests consisted of the following: (a) biodegradability (respiration rate and hydrocarbon loss in a reference moist soil); (b) phytoxicity (alfalfa seed emergence and root elongation); (c) earthworm survival; (d) springtail survival; and (e) Microtox (IC-50 on bioluminescent bacterium Photobacterium phosporeum).
One of skill in the art will appreciate that the results of Table 1 indicate that diesel and the branched paraffins are more resistant to rapid biodegradation than the other four fluids.

[2] = Biodegradability (respiration rate and hydrocarbon loss in a reference moist soil); details: base fluids, 1 = most biodegradable
Experimental: as §1
Biodegradability and toxicity of Formulations A and N are contrasted with those of typical diesel/CaCl2/barite fluid in Table 4. The leading rate on the test soil in Table 4 was 6% w/w. […] In comparing formulation A with a similar formulation weighted with barite (instead of hematite), biodegradability and toxicity appear to be similar for the two fluids. However, a soil-enhancing iron source is considered desirable for its long-term potential benefits.
Biodegradability (Respiration rate and hydrocarbon loss in moist soil.)

alfalfa = experiment: Alfalfa phytotoxicity (seed emergence, root elongation, shoot mass); assay type: in vivo; details: base fluids; normalized to Control test values of 100
Experimental: as §1
Alfalfa seed emergence and root elongation.

[3] = test system: Earthworms (Esenia fetida); experiment: Earthworm survival; assay type: in vivo; details: base fluids
Experimental: as §1
Earthworms (Esenia fetida) toxicity

Biodegradability Rank [2]: 4
Substance: Isomerized tetradecene [Isomerized tetradecene C14 (IO)]
Toxicity Rank [1]: 4
Alfalfa Phytotoxicity % Root Elongation (alfalfa): 144%
Alfalfa Phytotoxicity % Seed Emergence (alfalfa): 101%
Animal Toxicity % Earthworm Survival [3]: 100%
